Data taken from patent US20100297692A1, “REACTION MEDIUM FOR DETECTING AND/OR IDENTTIFYING STAPHYLOCCOUS AUREUS” (BIOMERIEUX, priority 2007, published 2010).

Key:
S. aureus (MRSA) = test: β-D-ribosidase substrates in Columbia agar, colored or fluorescent colonies; format: cell-based, Staphylococcus aureus
Description: (§1) The media hereinafter were prepared in 200 ml of a Columbia agar base (Oxoid), in combination with the chromogenic β-D-ribosidase substrates. The various substrates and also the concentrations and the additives used in the media are described in Table 1 below:
(§2) The β-D-ribosidase substrates are solubilized in DMSO and added to the media so as to obtain the concentrations indicated in Table 1.
(§3) 191 bacterial strains were inoculated onto each of the media using a suspension at 0.5 MacFarland diluted to 1/1000. The dishes were incubated at 37° C. and then read.
(§4) The media were distributed into Petri dishes, then inoculated with approximately 100 000 CFU, then incubated at 37° C. for 48 h. The colonies formed were examined visually after incubation times of 18, 24 and 48 hours.
(§5) The stock collection of 191 strains comprised: […], 48 Staphylococcus spp, 61 Enterococcus spp and 3 alpha-hemolytic Streptococcus.

S. aureus (MSSA) = test: as above; format: cell-based, Staphylococcus aureus
Description: as §1, §2, §3, §4, §5

[1] = system: Coagulase-negative Staphylococci; test: as above; format: cell-based, Staphylococcus spp; conditions: for % of strains producing colored or fluorescent colonies: Coagulase-negative Staphylococci
Description: as §1, §2, §3, §4, §5

Micrococcus luteus = test: as above; format: cell-based
Description: [The procedure below names another organism; the source lists this organism under the same test.] as §1, §2, §3, §4, §5

Enterococci = test: as above; format: cell-based, Enterococcus spp
Description: as §1, §2, §3, §4, §5

[2] = system: Alpha-hemolytic streptococci; test: as above; format: cell-based, alpha-hemolytic Streptococcus
Description: as §1, §2, §3, §4, §5

S aureus (MRSA and MSSA) = test: Catechol-β-D-riboside and X-β-D-riboside on a broad panel of Staphylococcus spp; format: cell-based; conditions: modified Chapman medium without NaCl, 60 mg/l substrate
Description: (§6) Catechol-β-D-riboside: A GTS medium (bioMérieux) supplemented with 300 mg/l of catechol-β-D-riboside, then autoclaved, and with 500 mg/l of ammoniacal iron citrate was used and distributed into Petri dishes 55 mm in diameter.
(§7) X-β-D-riboside: A modified Chapman medium, without NaCl, autoclaved and supplemented with 60 mg/l of X-β-D-riboside, was used and distributed into Petri dishes 55 mm in diameter.
For the two media, the inoculation was carried out using precultures prepared for 24 h at 37° C. A suspension in physiological saline at 0.5 McF was prepared and then each strain was inoculated onto a dish using a 10 μl calibrated loop. […]
(§8) In total, […] were tested: 34 S. aureus, including 25 MRSAs, and 46 other species of Staphylococcus (including S. schleiferi; S. capitis; S. hyicus; S. intermedius; S. haemolyticus; S. auricularis; S. hominis; S. warneri; S. chromogenes; S. cohnii; S. epidermidis; S. sciuri; S. xylosus; S. saprophyticus).

Coag neg = test: as above; format: cell-based; conditions: modified Chapman medium without NaCl, 60 mg/l substrate
Description: as §6, §7
For the two media, the inoculation was carried out using precultures prepared for 24 h at 37° C. A suspension in physiological saline at 0.5 McF was prepared and then each strain was inoculated onto a dish using a 10 μl calibrated loop.
The readings were carried out after 24 and 48 hours of incubation at 37° C.
as §8

5-Bromo-4-chloro-3-indoxyl-beta-D-riboside [X-β-riboside]
% of strains producing colored or fluorescent colonies (S. aureus (MRSA); 80 mg/L, 18 h): 84%
% of strains producing colored or fluorescent colonies (S. aureus (MRSA); 80 mg/L, 24 h): 92%
% of strains producing colored or fluorescent colonies (S. aureus (MRSA); 80 mg/L, 48 h): 97%
% of strains producing colored or fluorescent colonies (S. aureus (MRSA); 200 mg/L, 18 h): 82%
% of strains producing colored or fluorescent colonies (S. aureus (MRSA); 200 mg/L, 24 h): 87%
% of strains producing colored or fluorescent colonies (S. aureus (MRSA); 200 mg/L, 48 h): 95%
% of strains producing colored or fluorescent colonies (S. aureus (MSSA); 80 mg/L, 18 h): 64%
% of strains producing colored or fluorescent colonies (S. aureus (MSSA); 80 mg/L, 24 h): 100%
% of strains producing colored or fluorescent colonies (S. aureus (MSSA); 80 mg/L, 48 h): 100%
% of strains producing colored or fluorescent colonies (S. aureus (MSSA); 200 mg/L, 18 h): 64%
% of strains producing colored or fluorescent colonies (S. aureus (MSSA); 200 mg/L, 24 h): 64%
% of strains producing colored or fluorescent colonies (S. aureus (MSSA); 200 mg/L, 48 h): 100%
% of strains producing colored or fluorescent colonies ([1]; 80 mg/L, 18 h): 3%
% of strains producing colored or fluorescent colonies ([1]; 80 mg/L, 24 h): 6%
% of strains producing colored or fluorescent colonies ([1]; 80 mg/L, 48 h): 6%
% of strains producing colored or fluorescent colonies ([1]; 200 mg/L, 18 h): 3%
% of strains producing colored or fluorescent colonies ([1]; 200 mg/L, 24 h): 3%
% of strains producing colored or fluorescent colonies ([1]; 200 mg/L, 48 h): 3%
false positives among the coagulase-negative staphylococci ([1]; Columbia agar, 24 h of incubation, concentration not given): 3%
% of strains producing colored or fluorescent colonies (Micrococcus luteus; 80 mg/L, 18 h): 0%
% of strains producing colored or fluorescent colonies (Micrococcus luteus; 80 mg/L, 24 h): 0%
% of strains producing colored or fluorescent colonies (Micrococcus luteus; 80 mg/L, 48 h): 0%
% of strains producing colored or fluorescent colonies (Micrococcus luteus; 200 mg/L, 18 h): 0%
% of strains producing colored or fluorescent colonies (Micrococcus luteus; 200 mg/L, 24 h): 0%
% of strains producing colored or fluorescent colonies (Micrococcus luteus; 200 mg/L, 48 h): 0%
% of strains producing colored or fluorescent colonies (Enterococci; 80 mg/L, 18 h): 2%
% of strains producing colored or fluorescent colonies (Enterococci; 80 mg/L, 24 h): 2%
% of strains producing colored or fluorescent colonies (Enterococci; 80 mg/L, 48 h): 2%
% of strains producing colored or fluorescent colonies (Enterococci; 200 mg/L, 18 h): 2%
% of strains producing colored or fluorescent colonies (Enterococci; 200 mg/L, 24 h): 2%
% of strains producing colored or fluorescent colonies (Enterococci; 200 mg/L, 48 h): 2%
% of strains producing colored or fluorescent colonies ([2]; 80 mg/L, 18 h): 0%
% of strains producing colored or fluorescent colonies ([2]; 80 mg/L, 24 h): 0%
% of strains producing colored or fluorescent colonies ([2]; 80 mg/L, 48 h): 0%
% of strains producing colored or fluorescent colonies ([2]; 200 mg/L, 18 h): 0%
% of strains producing colored or fluorescent colonies ([2]; 200 mg/L, 24 h): 0%
% of strains producing colored or fluorescent colonies ([2]; 200 mg/L, 48 h): 0%
Number of strains producing a coloration/total number of strains, positive at 18 h (S aureus (MRSA and MSSA); 18 h): 17/34
Number of strains producing a coloration/total number of strains, positive at 24 h (S aureus (MRSA and MSSA); 24 h): 29/34
Number of strains producing a coloration/total number of strains, positive at 48 h (S aureus (MRSA and MSSA); 48 h): 33/34
Number of strains producing a coloration/total number of strains, positive at 18 h (Coag neg; 18 h): 7/46
Number of strains producing a coloration/total number of strains, positive at 24 h (Coag neg; 24 h): 12/46
Number of strains producing a coloration/total number of strains, positive at 48 h (Coag neg; 48 h): 14/46
